Measurements: ChEMBL document CHEMBL3507680, “University of Dundee, Gates Library screen for HepG2 cell viability”

Experiment: Human HepG2 cell viability assay in 384 well format
Type: toxicity, cell-based
Design: dose 125 nL, time 70.5 hour; concentration not given beside the values
Settings: HepG2 cells, read-out: Inhibition

SMILES	cytotoxicity at 70.5 h
Cc1nn(C)c(C)c1CN(C(=O)c1cc(Cl)c[nH]c1=O)C(C)C	-11%
COCCCn1ccc(NC(=O)NCCc2cccnc2)n1	-6.28%
c1ccc(CCN2CCC(OCC3CCCCO3)CC2)nc1 (stereo unspecified)	5.3%
Cc1ncsc1CCN(C)Cc1ccc(CO)o1	-5.5%
O=C(O)[C@@H]1CCN(C(=O)c2cscn2)[C@@H]1c1ccc(F)cc1	-2.87%
COCC1CC2(CCN(C(=O)c3occc3C)CC2)CO1 (stereo unspecified)	-6.11%
CN(C)C1CCN(C(=O)Cc2csc(-c3ncccn3)n2)CC1	0.448%
c1cnn(CC2CN(c3ncnc4sccc34)CCO2)c1 (stereo unspecified)	-4.77%
O=C(O)[C@]12CN(CC3CCC3)C[C@H]1CN(c1cnccn1)C2	-4.33%
c1cncc(-c2noc(CCNc3ncnc4c3CCNCC4)n2)c1	-7.7%
CC(C)c1nnsc1CN1CCc2[nH]nc(-c3ccc(F)c(F)c3)c2C1	-11.6%
COCC(=O)N1Cc2c(-c3cccc(C)c3)nc(N)nc2C1C (stereo unspecified)	-9.82%
CN(Cc1ccccn1)C1CCC[C@@H]2CN(CC3CC3)C[C@H]12 (stereo partly specified)	17.7%
CC(C)[C@H](NC(=O)N1CCN(c2ccc(Cl)cc2)CC1)C(=O)NC1CC1	-17%
CC(C)N1C[C@@H]2CN(C(=O)NCc3ccccc3)CCC[C@]2(C(=O)O)C1	-4.97%
COCCC(=O)N1CCn2c(COCC3CC3)cnc2C1C (stereo unspecified)	-0.0494%
NC(=O)CSc1ccccc1NCc1nc(C2CC2)no1	15%
O=C(c1cccnc1SCc1ccccc1)N1CC[C@@H](O)C1	29.6%
CCc1c(C)nc2n(c1=O)CC(C(=O)Nc1nccs1)CS2 (stereo unspecified)	33.6%

SMILES	cytotoxicity at 70.5 h
O=S1(=O)CCN2C(=N1)Oc1ccc(Cl)cc12	23.7%
COCC(c1cccc(C(F)(F)F)c1)N(C)C(=O)c1ccncc1 (stereo unspecified)	30.8%
CCN1C(=O)C2(CCOCC2)c2cc(NC(=O)c3cc(C)n[nH]3)ccc21	-3.02%
O=C(CCc1cc2n(n1)CCCNC2)N1CCC(N2CCOC2=O)CC1	-3.48%
CCn1ccc(C(=O)N2CCCN(Cc3ccccc3F)CC2)cc1=O	17.5%
N#Cc1ccc(CN2CCNC(=O)C2c2cccs2)cc1 (stereo unspecified)	-3.15%
Cc1nccn1[C@@H]1CC[C@@H](N(C)S(=O)(=O)c2cccc(F)c2)[C@H]1O	-0.727%
Cn1ccnc1CN1CCN(Cc2ccc(C#N)cc2)CC1	-2.96%
Cc1c(C(C)NC(=O)N2CCN(C3CCCC3)CC2)cnn1C (stereo unspecified)	54.3%
Cc1nc2n(n1)CC(NCC(=O)NCCCOC(C)C)CC2 (stereo unspecified)	-0.276%
Cc1cc(CN2CCc3cncnc3C2)no1	-8.98%
CCN(CC)S(=O)(=O)N(C)Cc1ccncc1	-8.49%
Cc1sc2c(C3CCCN(S(C)(=O)=O)C3)nc(C)n2c1C (stereo unspecified)	-9.83%
O=C(O)c1ccn(-c2ccccc2NC(=O)c2ccccc2Cl)n1	-3.53%
CCN1CC2(CCN(C(=O)C(C)Oc3cccc(Cl)c3)CC2)OC1=O (stereo unspecified)	-11.6%
Cc1cn[nH]c1C1CCCCN1C(=O)CCN1CCCCCC1 (stereo unspecified)	-36.7%
C[C@H]1CN2C[C@H](O)CC2CN1Cc1ccc2nccnc2c1 (stereo partly specified)	-1.32%
CC(=O)N1CCC(n2nccc2-c2cnc(N(C)CCO)nc2)CC1	-6.31%
CNS(=O)(=O)Cc1cccc(CNC(=O)Nc2cn[nH]c2)c1	-4.03%

SMILES	cytotoxicity at 70.5 h
CC(=O)NC(C)c1ccc(OCC2CC2)c(F)c1 (stereo unspecified)	-6.57%
Cc1cnc(N2C[C@@H]3[C@@H](C2)OCC(=O)N3CC2CC2)nc1	14.2%
Cc1ccc(CC(=O)NCC(O)c2ccc(Cl)cc2Cl)cn1 (stereo unspecified)	3.42%
O=C(NC[C@H]1OC[C@@H](NC2COC2)[C@@H]1O)c1cccs1	-15.7%
Cc1n[nH]cc1CNC(C(=O)N1CCOCC1)c1ccccc1 (stereo unspecified)	15.2%
COCCCNC(=O)CN(C)C(=O)c1cc(C)sc1C	-14%
Cc1cccc(N2CC3(CCN(S(=O)(=O)c4ccccc4)C3)CC2=O)c1 (stereo unspecified)	-6.5%
Cc1n[nH]c(C2CN(Cc3csc(C4CCCCC4)n3)CCO2)n1 (stereo unspecified)	0.0665%
CNC(=O)Cn1nc(C(C)C)c2cnn(C(C)(C)C)c2c1=O	25.5%
CCC(=O)NC(c1ccc(C)cc1)c1cccc(S(C)(=O)=O)c1 (stereo unspecified)	-11.9%
Fc1cccc(CN2C[C@@H]3CN(c4ncccn4)C[C@@H]3C2)c1	-3.5%
Cc1ccccc1C(=O)NC[C@@H]1CCN(C(=O)c2cccn2C)C[C@H]1O	-13%
NC(=O)CN1CCCC(c2nccnc2Oc2cccc(F)c2)C1 (stereo unspecified)	-9.46%
Cc1ccsc1CNc1cc(N2CCCC2CO)ncn1 (stereo unspecified)	-4.35%
CC(=O)c1ccc(C(=O)N2CCC(c3cc(O)nc(C)n3)CC2)s1	-10.9%
CCOc1ccccc1C1=CCN(C(=O)C2CCN(C)C(=O)C2)CC1 (stereo unspecified)	16.3%
CC(Cc1ccc(C(F)(F)F)cc1)C(=O)N1CCCS1(=O)=O (stereo unspecified)	-9.41%
COc1ccc(CCNc2cc(-c3nc(C)no3)ccn2)cc1OC	-3.44%
